Results from patent publication US20200268864A1, “CANCER VACCINE COMPOSITIONS AND METHODS FOR USING SAME TO TREAT CANCER” (Dana-Farber Cancer Institute, Inc., priority 2017, published 2020).
“Also recorded” adds a separate entry of the source.

Tested on: STING pathway in BMDCs co-cultured with ID8 cells
Test: Co-culture of BMDCs with drug-treated WT or Brca1-null ID8 cells
Assay type: cell-based, mouse
Conditions: co-cultured with drug-treated Brca1-null ID8 cells
Description: Brca-1 deficient ID8 cells were generated using a CRISPR double nickase plasmid. ID8 cells cultured in a 6-well plate were transfected with 2 μg/well of BRCA1 double nickase plasmid (sc419362-NIC, Santa Cruz Biotechnology) or control double nickase plasmid (SC-437281, Santa Cruz Biotechnology) using lipofectamine 3000 (Invitrogen). 48 hrs post-transfection, cells were passaged onto a 10 cm plate. After 24 h, puromycin (3 μg/mL) was added to the culture for selection. Puromycin resistant cells were selected and expanded. Due to a lack of a reliable mouse BRCA1 antibody for Western blot, cells were analyzed by DNA sequencing to confirm the disruption of functional Brca1 allele. To generate ID8 tumors, cultured ID8 cells were harvested and resuspended in serum free DMEM. Cells were then mixed with Matrigel (Corning). A total volume of 0.1 ml containing 5×10^6 ID8 cells and 40% Matrigel were injected subcutaneously into the flank of C57BL/6J mice.
Bone marrow cells were isolated from FVB/NJ mice and cultured in RPMI-1640 containing 10% FBS and 20 ng/ml GM-CSF. BMDCs (bone marrow derived dendritic cells) were harvested for in vitro co-culture assay on day 7 to day 10. About 3×10^5 PBM or PPM tumor cells were cultured in a 6-well plate for 24 hr. and then treated with DMSO or olaparib. […]

SMILES: O=C(c1cc(Cc2n[nH]c(=O)c3ccccc23)ccc1F)N1CCN(C(=O)C2CC2)CC1 [olaparib, Olaparib]
- p-TBK1+p-IRF3+ and IFN-β (STING pathway activation) in wild-type BMDCs: Increased; also recorded: activation of STING pathway occurred
